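How tested: cells in 96-well plates exposed to compound for 48 hours at five concentrations. Abbreviation: GI50, concentration required for 50% inhibition of growth.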 Activity calls are given as the source filed them. Cut-off read from the data, not from the text of the source: active = GI50 up to about 1.1 µM and inactive = higher.
Key:
Assay in all cases: growth of human tumour cells (NCI), 48 h
[1] = test system: LOX IMVI
[2] = test system: OVCAR-8
[3] = test system: NCI/ADR-RES
[4] = test system: ACHN
[5] = test system: SK-OV-3
[6] = test system: RXF 393
[7] = test system: HCT-116
[8] = test system: SF-539
[9] = test system: HCC 2998
[10] = test system: COLO 205
[11] = test system: SR
[12] = test system: PC-3
[13] = test system: KM12
[14] = test system: SF-268
[15] = test system: SK-MEL-5
[16] = test system: RPMI-8226
[17] = test system: EKVX
[18] = test system: MOLT-4
[19] = test system: OVCAR-3
[20] = test system: MDA-MB-231

Structure (SMILES)	GI50 [1]	GI50 [2]	GI50 [3]	GI50 [4]	GI50 [5]	GI50 [6]	GI50 [7]	GI50 [8]	GI50 [9]	GI50 [10]	GI50 [11]	GI50 [12]	GI50 [13]	GI50 [14]	GI50 [15]	GI50 [16]	GI50 [17]	GI50 [18]	GI50 [19]	GI50 [20]
CN(C)CCNc1ccc2nnn3c4ccc(O)cc4c(=O)c1c23	1.5 µM (inactive)	1.73 µM (inactive)	1.81 µM (inactive)	2.76 µM (inactive)	3.72 µM (inactive)	1.68 µM (inactive)	1.35 µM (inactive)	3.95 µM (inactive)	5.48 µM (inactive)	3.39 µM (inactive)	0.18 µM (active)	1.46 µM (inactive)	2.32 µM (inactive)	5.38 µM (inactive)	2.53 µM (inactive)	2.06 µM (inactive)	3.13 µM (inactive)	0.168 µM (active)	5.73 µM (inactive)	0.273 µM (active)
O=C1C=CC(=O)c2c1ccc1c3ccccc3n(-c3cccc([N+](=O)[O-])c3)c21	> 10 µM (inactive)	2.83 µM (inactive)	> 5.58 µM (inactive)	1.7 µM (inactive)	> 10 µM (inactive)	2.38 µM (inactive)	1.92 µM (inactive)	> 5.05 µM (inactive)	> 10 µM (inactive)	1.42 µM (inactive)	0.412 µM (active)	> 8.3 µM (inactive)	> 7.98 µM (inactive)	5.66 µM (inactive)	5.57 µM (inactive)	1 µM (active)	> 5.45 µM (inactive)	0.355 µM (active)	2.13 µM (inactive)	2.72 µM (inactive)
CC[C@@]1(O)C(=O)OCc2c1cc1n(c2=O)Cc2c-1nc1ccc(N)cc1c2CC[Si](C)(C)C	< 0.01 µM (active)	< 0.01 µM (active)	< 0.01 µM (active)	< 0.01 µM (active)	< 0.01 µM (active)	< 0.01 µM (active)	< 0.01 µM (active)	< 0.01 µM (active)	< 0.0111 µM (active)	< 0.0164 µM (active)	< 0.01 µM (active)	< 0.0229 µM (active)	0.0155 µM (active)	< 0.01 µM (active)	< 0.01 µM (active)	< 0.01 µM (active)	< 0.0212 µM (active)	< 0.01 µM (active)	< 0.0188 µM (active)	< 0.0363 µM (active)
O=c1oc2cc(/N=C/c3ccccc3Cl)ccc2c2ccccc12	87.3 µM (inactive)	> 100 µM (inactive)	> 100 µM (inactive)	> 100 µM (inactive)	–	> 100 µM (inactive)	71.3 µM (inactive)	> 100 µM (inactive)	> 100 µM (inactive)	> 100 µM (inactive)	> 100 µM (inactive)	98.6 µM (inactive)	> 100 µM (inactive)	87.1 µM (inactive)	> 100 µM (inactive)	> 100 µM (inactive)	49.2 µM (inactive)	> 100 µM (inactive)	> 100 µM (inactive)	> 100 µM (inactive)
CCCCC1(O)CC2CC1C(C)C2(C)C (stereo not drawn)	> 100 µM (inactive)	> 100 µM (inactive)	> 100 µM (inactive)	–	> 100 µM (inactive)	> 100 µM (inactive)	> 100 µM (inactive)	> 100 µM (inactive)	> 100 µM (inactive)	> 100 µM (inactive)	44.8 µM (inactive)	> 100 µM (inactive)	> 100 µM (inactive)	> 100 µM (inactive)	> 100 µM (inactive)	54.6 µM (inactive)	> 100 µM (inactive)	93.3 µM (inactive)	> 100 µM (inactive)	> 100 µM (inactive)

— ChEMBL document CHEMBL1201862, “PubChem BioAssay data set” (2004)
